The source of these data is ChEMBL document CHEMBL1149028, “Isolation and structure of cephalostatins 10 and 11” (1994).

Common to all, as to format: functional
One assay concerns P388. The assay can be described thus: Growth inhibition of mouse P388 cells. Particulars: read-out: ED50 (the source's name).
The test system of a further assay is COLO 205. The assay can be described thus: Growth inhibition of human COLO205 cells.
The next assay has as its system DLD-1. The assay can be described thus: Growth inhibition of human DLD1 cells.
A further assay concerns HCC 2998. The experiment in a line: Growth inhibition of human HCC2998 cells.
For a further assay, the system named is HCT-116. The assay can be described thus: Growth inhibition of human HCT116 cells.
In a further assay the test system is HCT-15. The experiment in a line: Growth inhibition of human HCT15 cells.
A further assay has as its system HT-29. The experiment in a line: Growth inhibition of human HT-29 cells.
For another assay, the system named is KM-20L2. The experiment in a line: Growth inhibition of human KM20L2 cells.
A further assay has as its system SW-620. The assay can be described thus: Growth inhibition of human SW620 cells.
In the next assay the test system is SF-268. The experiment in a line: Growth inhibition of human SF268 cells.
The next assay concerns SF-295. The experiment in a line: Growth inhibition of human SF295 cells.
Another assay deals with SF-539. The experiment in a line: Growth inhibition of human SF539 cells.
Another assay has as its system SNB-19. The assay can be described thus: Growth inhibition of human SNB19 cells.
In the next assay the test system is SNB-75. The assay can be described thus: Growth inhibition of human SNB75 cells.
The test system of a further assay is SNB-78. The experiment in a line: Growth inhibition of human SNB78 cells.
A further assay concerns U-251. The experiment in a line: Growth inhibition of human U251 cells.
The next assay deals with XF498. The experiment in a line: Growth inhibition of human XF498 cells.
The test system of a further assay is LOX IMVI. The assay can be described thus: Growth inhibition of human LOXIMVI cells.
The next assay relates to Malme-3M. The assay can be described thus: Growth inhibition of human MALME-3M cells.
For a further assay, the system named is M14. The assay can be described thus: Growth inhibition of human M14 cells.
The test system of another assay is M19-MEL. The assay can be described thus: Growth inhibition of human M19-MEL cells.
The test system of another assay is SK-MEL-2. The experiment in a line: Growth inhibition of human SK-MEL-2 cells.
The test system of a further assay is SK-MEL-28. The assay can be described thus: Growth inhibition of human SK-MEL-28 cells.
In the next assay the test system is SK-MEL-5. The experiment in a line: Growth inhibition of human SK-MEL-5 cells.
The subject of the next assay is UACC-257. The assay can be described thus: Growth inhibition of human UACC257 cells.
In another assay the test system is UACC-62. The assay can be described thus: Growth inhibition of human UACC62 cells.
The test system of the next assay is IGROV-1. The assay can be described thus: Growth inhibition of human IGROV1 cells.
A further assay concerns OVCAR-3. The experiment in a line: Growth inhibition of human OVCAR-3 cells.
The subject of another assay is OVCAR-4. The experiment in a line: Growth inhibition of human OVCAR4 cells.
The subject of the next assay is OVCAR-5. The experiment in a line: Growth inhibition of human OVCAR5 cells.
Another assay deals with OVCAR-8. The experiment in a line: Growth inhibition of human OVCAR8 cells. Conditions: OVCAR-8, read-out: pGI50 (converted).
The next assay has as its system SK-OV-3. The assay can be described thus: Growth inhibition of human SKOV3 cells.
Assay [1] in a line: Growth inhibition of human 786-O cells. Conditions: 786-0.
The test system of another assay is A498. The experiment in a line: Growth inhibition of human A498 cells.
Another assay deals with ACHN. The experiment in a line: Growth inhibition of human ACHN cells.
In the next assay the test system is CAKI-1. The experiment in a line: Growth inhibition of human Caki1 cells.
The subject of a further assay is RXF 393. The experiment in a line: Growth inhibition of human RXF393 cells.
The test system of another assay is SN12C. The experiment in a line: Growth inhibition of human SN12C cells.
The test system of a further assay is TK-10. The assay can be described thus: Growth inhibition of human TK10 cells.
The next assay deals with UO-31. The assay can be described thus: Growth inhibition of human UO31 cells.
Another assay deals with DMS-273. The experiment in a line: Growth inhibition of human DMS273 cells.
The next assay concerns KM12. The experiment in a line: Growth inhibition of human KM12 cells.
A further assay deals with CCRF-CEM. The experiment in a line: Growth inhibition of human CCRF-CEM cells.
A further assay concerns HL-60(TB). The experiment in a line: Growth inhibition of human HL-60(TB) cells.
In another assay the test system is K562. The assay can be described thus: Growth inhibition of human K562 cells.
A further assay concerns MOLT-4. The assay can be described thus: Growth inhibition of human MOLT4 cells.
For the next assay, the system named is RPMI-8226. The assay can be described thus: Growth inhibition of human RPMI8226 cells.
The next assay has as its system SR. The assay can be described thus: Growth inhibition of human SR cells.
The subject of another assay is A549. The experiment in a line: Growth inhibition of human A549 cells.
For a further assay, the system named is EKVX. The assay can be described thus: Growth inhibition of human EKVX cells.
The next assay has as its system HOP-18. The experiment in a line: Growth inhibition of human HOP18 cells.
The subject of the next assay is HOP-62. The experiment in a line: Growth inhibition of human HOP62 cells.
The subject of another assay is HOP-92. The assay can be described thus: Growth inhibition of human HOP92 cells.
Another assay has as its system NCI-H226. The assay can be described thus: Growth inhibition of human NCI-H226 cells.
For the next assay, the system named is NCI-H23. The experiment in a line: Growth inhibition of human NCI-H23 cells.
Another assay concerns NCI-H322M. The assay can be described thus: Growth inhibition of human NCI-H322M cells.
In a further assay the test system is NCI-H460. The assay can be described thus: Growth inhibition of human NCI-H460 cells.
The test system of the next assay is NCI-H522. The assay can be described thus: Growth inhibition of human NCI-H522 cells.
The nature of assay [2]: Growth inhibition of human LXFL529 cells. Conditions: LXFL 529.
The next assay relates to DMS-114. The experiment in a line: Growth inhibition of human DMS114 cells.

Structures are written as SMILES. Converted amounts (≈) assume the structure as drawn.

As to `CO[C@H]1c2nc3c(nc2C[C@@H]2CC[C@H]4C5=CC[C@@H]6[C@@H](C)[C@]7(OC[C@]56C(=O)C[C@]4(O)[C@]21C)OC(C)(C)C[C@H]7O)C[C@@]1(C)[C@@H](CC[C@H]2C4=C[C@@H]5O[C@]6(O[C@](C)(CO)C[C@H]6O)[C@@H](C)[C@]5(O)[C@@]4(C)[C@H](O)C[C@@H]21)C3`, the EC50 in the assay with P388 was found to be 2.5 ng/mL (≈ 2.61 nM).
Take `C[C@@H]1[C@]2(O[C@H]3C=C4[C@@H]5CC[C@H]6Cc7nc8c(nc7C[C@]6(C)[C@H]5C[C@@H](O)[C@]4(C)[C@]31O)C[C@@H]1CC[C@H]3C4=CC[C@@H]5[C@H](C)[C@@]6(OC[C@]45C(=O)C[C@@H]3[C@@]1(C)C8)OC(C)(C)C[C@H]6O)O[C@](C)(CO)C[C@H]2O` [CEPHALOSTATIN 1]: the GI50 in the assay with COLO 205 is 1.7 nM; in the assay on DLD-1 it was 8.51 nM; in the assay with HCC 2998 it was 60.3 nM; with HCT-116, 0.525 nM; in the assay on HCT-15, 3.39 nM; in the assay with HT-29, 2 nM. Moreover, the GI50 with KM-20L2 is 2 nM; with SW-620 it was 0.302 nM; in the assay with SF-268 it was 2.19 nM; with SF-295 it was 0.0437 nM; with SF-539, 0.0813 nM; in the assay with SNB-19, 1.7 nM. The GI50 was 0.0813 nM with SNB-75; 0.794 nM in the assay with SNB-78; 0.0646 nM in the assay on U-251; 0.589 nM in the assay on XF498; 0.24 nM in the assay with LOX IMVI; 5.25 nM in the assay with Malme-3M. In addition, the GI50 in the assay with M14 is 0.49 nM; with M19-MEL, 47.9 nM; with SK-MEL-2, 0.741 nM; with SK-MEL-28 it was 0.955 nM; in the assay with SK-MEL-5, 3.47 nM; with UACC-257, 3.71 nM. The GI50 in the assay on UACC-62 is 0.389 nM; in the assay on IGROV-1, 2.19 nM; in the assay with OVCAR-3, 30.9 nM; in the assay on OVCAR-4 it was 14.1 nM; in the assay with OVCAR-5 it was 10 nM; in the assay with OVCAR-8 it was 24 nM. Further, the GI50 in the assay on SK-OV-3 was 7.08 nM; in assay [1], 0.0776 nM; in the assay with A498, 0.537 nM; in the assay with ACHN, 3.31 nM; with CAKI-1, 0.724 nM; with RXF 393, 0.0251 nM. For the same molecule, the GI50 was 21.9 nM with SN12C; 93.3 nM in the assay on TK-10; 4.17 nM with UO-31; 0.0525 nM in the assay with DMS-273; 3.24 nM in the assay with KM12; 0.251 nM in the assay on CCRF-CEM. For the same molecule, the GI50 was 0.151 nM in the assay with HL-60(TB); 0.427 nM in the assay on K562; 0.2 nM in the assay with MOLT-4; 0.0513 nM in the assay with RPMI-8226; 0.288 nM in the assay with SR; 1.1 nM in the assay with A549. Also, the GI50 in the assay on EKVX is 43.6 nM; with HOP-18, 0.832 nM; in the assay with HOP-62, 0.209 nM; in the assay with HOP-92 it was 0.724 nM; in the assay on NCI-H226 it was 3.24 nM; in the assay with NCI-H23 it was 0.339 nM. Also, the GI50 in the assay on NCI-H322M was 33.1 nM; in the assay with NCI-H460, 0.309 nM; in the assay with NCI-H522 it was 2.4 nM; in assay [2] it was 0.363 nM; with DMS-114, 0.661 nM.
On to `CO[C@H]1c2nc3c(nc2C[C@@H]2CC[C@H]4C5=C[C@@H]6O[C@]7(O[C@](C)(CO)C[C@H]7O)[C@@H](C)[C@]6(O)[C@@]5(C)[C@H](O)C[C@@H]4[C@]21C)C[C@@]1(C)[C@@H](CC[C@H]2C4=CC[C@@H]5[C@H](C)[C@@]6(OC[C@]45C(=O)C[C@@]21O)OC(C)(C)C[C@H]6O)C3` [CEPHALOSTATIN 10], for which, in the assay on P388, the EC50 amounted to 3 ng/mL (≈ 3.13 nM).
